pEC50, pIC50: −log10 of the molar value.

In patent publication US11267825B2 (AICURIS GMBH & CO. KG, priority 2017, dated 2022) one finds IC50 and EC50 data, which are given here for 29 compounds.

The target in test [1] is HBV core protein (UniProt P03146). Type of test: biochemical. Particulars: read-out: Assembly Activity (IC50); BODIPY-FL labelled core protein, assembly started with NaCl, read after 6 min. The method, boiled down: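 Compounds tested at 8 concentrations in 0.5-log steps from 100, 31.6 or 10 μM against 1.0–2.0 μM BODIPY-FL-labelled Cys150 core dimers (residues 1–149), 50 mM HEPES pH 7.5. NaCl ([…] final) triggered assembly; quenching read at 6 min, 477/525 nm, with 2.5 M and 0 M NaCl as controls; EC50 by nonlinear fit.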
HBV core protein, sequence (P03146 whole entry, looked up, the tested form may be a part): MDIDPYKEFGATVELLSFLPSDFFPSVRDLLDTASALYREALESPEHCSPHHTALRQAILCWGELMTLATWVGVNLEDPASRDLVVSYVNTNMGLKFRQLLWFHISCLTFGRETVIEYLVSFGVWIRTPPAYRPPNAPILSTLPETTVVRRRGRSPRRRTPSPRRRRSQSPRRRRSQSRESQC

In test [2] the test system is HBV. The test is described as follows: Determination of HBV DNA from the supernatants of HepAD38 cells (anti-HBV activity). It counts as cell-based, hepatitis B virus. Particulars: Hepatitis B virus, 144 h; HBV DNA in HepAD38 supernatant at day 6; read-out: Cell Activity (EC50). In a few lines:
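EC50 values were obtained by non-linear regression of HBV DNA copy numbers measured by qPCR against pCH-9/3091 plasmid standards. The DNA came from filtered supernatants collected on day 6. Before that, tetracycline-withdrawn HepAD38 cells had been exposed to serial half-log compound dilutions, with tetracycline-treated cells as the non-producing control.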

One may read the pIC50 as −log10 of the IC50, conventionally taken in molar units. In general, pEC50 refers to the negative decadic logarithm of the EC50, by convention in mol/L. Take `O=C(c1cc2ccccc2[nH]1)N1CCc2nc(NS(=O)(=O)C3CC3)sc2C1` [Example 6, N-[5-(1H-indole-2-carbonyl)-4H,5H,6H,7H-[1,3]thiazolo[5,4-c]pyridin-2-yl]cyclopropanesulfonamide]: the pIC50 in test [1] was above 4.00. Further, the pEC50 in test [2] is above 6.00.

On to `CCC(C)(C)CC(=O)Nc1nc2c(s1)CN(C(=O)c1cc3ccccc3[nH]1)CC2` [Example 262, N-[5-(1H-indole-2-carbonyl)-4H,5H,6H,7H-[1,3]thiazolo[5,4-c]pyridin-2-yl]-3,3-dimethylpentanamide], for which, in test [1], the negative-log IC50 (pIC50) was above 4.00. Further, the pEC50 in test [2] was above 6.00.

Take `CC(O)c1cc(F)cc2[nH]c(C(=O)N3CCc4nc(NCC5(O)CCC5)sc4C3)cc12` (stereo not shown) [Example 366, 1-[({5-[6-fluoro-4-(1-hydroxyethyl)-1H-indole-2-carbonyl]-4H,5H,6H,7H-[1,3]thiazolo[5,4-c]pyridin-2-yl}amino)methyl]cyclobutan-1-ol]: the pIC50 in test [1] was above 4.00. For the same compound, the pEC50 in test [2] is above 6.00.

In the case of `Cc1cccc2[nH]c(C(=O)N3CCc4nc(N(C)C)sc4C3)cc12` [Example 88, N,N-dimethyl-5-(4-methyl-1H-indole-2-carbonyl)-4H,5H,6H,7H-[1,3]thiazolo[5,4-c]pyridin-2-amine], the pIC50 in test [1] was above 4.00. For the same compound, in test [2], the pEC50 is 5.00 to 6.00.

Regarding `O=C(Nc1nc2c(s1)CN(C(=O)c1cc3ccccc3[nH]1)CC2)C1CCOCC1` [Example 2, N-[5-(1H-indole-2-carbonyl)-4H,5H,6H,7H-[1,3]thiazolo[5,4-c]pyridin-2-yl]oxane-4-carboxamide], the pIC50 in test [1] is above 5.30. Also, the pEC50 in test [2] was above 6.00.

For `O=C(c1cc2ccccc2[nH]1)N1CCc2nc(CNC3CC3)sc2C1` [Example 38, N-{[5-(1H-indole-2-carbonyl)-4H,5H,6H,7H-[1,3]thiazolo[5,4-c]pyridin-2-yl]methyl}cyclopropanamine], the pIC50 in test [1] is above 5.30. For the same compound, in test [2], the pEC50 was above 6.00.

`O=C(c1cc2ccccc2[nH]1)N1CCc2nc(NCC3(CO)CCC3)sc2C1` [Example 27, [1-({[5-(1H-indole-2-carbonyl)-4H,5H,6H,7H-[1,3]thiazolo[5,4-c]pyridin-2-yl]amino}methyl)cyclobutyl]methanol]: the pIC50 in test [1] was above 5.30. Also, the pEC50 in test [2] was above 6.00.

Turning to `O=C(CC(F)(F)F)Nc1nc2c(s1)CN(C(=O)c1cc3ccccc3[nH]1)CC2` [Example 61, 3,3,3-trifluoro-N-[5-(1H-indole-2-carbonyl)-4H,5H,6H,7H-[1,3]thiazolo[5,4-c]pyridin-2-yl]propanamide], in test [1], the pIC50 was 5.00 to 5.30. In test [2], the pEC50 was above 6.00.

Take `Cc1nc2c(s1)CN(C(=O)c1cc3cc(F)cc(F)c3[nH]1)CC2` [Example 163]: the negative-log IC50 (pIC50) in test [1] is above 5.30. The pEC50 in test [2] is above 6.00.

Turning to `O=C(c1cc2ccccc2[nH]1)N1CCc2nc(NCC3COC3)sc2C1` [Example 126, 5-(1H-indole-2-carbonyl)-N-[(oxetan-3-yl)methyl]-4H,5H,6H,7H-[1,3]thiazolo[5,4-c]pyridin-2-amine], in test [1], the pIC50 was 5.00 to 5.30. The pEC50 in test [2] is 5.00 to 6.00.

For `Nc1nc2c(s1)CN(C(=O)c1cc3c(Cl)ccc(Cl)c3[nH]1)CC2` [Example 177, 5-(4,7-dichloro-1H-indole-2-carbonyl)-4H,5H,6H,7H-[1,3]thiazolo[5,4-c]pyridin-2-amine], the pIC50 in test [1] is above 4.00. Besides, in test [2], the pEC50 is above 4.00.

Turning to `O=C(c1cc2c(F)cc(F)cc2[nH]1)N1CCc2nc(NCC3(CO)CC3)sc2C1` [Example 75, [1-({[5-(4,6-difluoro-1H-indole-2-carbonyl)-4H,5H,6H,7H-[1,3]thiazolo[5,4-c]pyridin-2-yl]amino}methyl)cyclopropyl]methanol], the negative-log IC50 (pIC50) in test [1] is above 5.30. Also, the pEC50 in test [2] is above 6.00.

Regarding `CC(C)(O)CNc1nc2c(s1)CN(C(=O)c1cc3ccccc3[nH]1)CC2` [Example 95, 1-{[5-(1H-indole-2-carbonyl)-4H,5H,6H,7H-[1,3]thiazolo[5,4-c]pyridin-2-yl]amino}-2-methylpropan-2-ol], the pIC50 in test [1] is above 5.30. Further, in test [2], the pEC50 is above 6.00.

Consider `O=C(c1cc2ccccc2[nH]1)N1CCc2nc(N[C@H]3CCCC[C@@H]3O)sc2C1` [Example 47, (1S,2S)-2-{[5-(1H-indole-2-carbonyl)-4H,5H,6H,7H-[1,3]thiazolo[5,4-c]pyridin-2-yl]amino}cyclohexan-1-ol], for which the negative-log IC50 (pIC50) in test [1] was above 5.30. Besides, in test [2], the pEC50 was above 6.00.

In the case of `CC(F)(F)c1cc(F)cc2[nH]c(C(=O)N3CCc4nc(NCC5(O)CCC5)sc4C3)cc12` [Example 371, 1-[({5-[4-(1,1-difluoroethyl)-6-fluoro-1H-indole-2-carbonyl]-4H,5H,6H,7H-[1,3]thiazolo[5,4-c]pyridin-2-yl}amino)methyl]cyclobutan-1-ol], in test [1], the pIC50 was above 5.30. In test [2], the pEC50 is above 6.00.

Take `O=C(c1cc2ccccc2[nH]1)N1CCc2nc(NCC3(CO)CC3)sc2C1` [Example 87, [1-({[5-(1H-indole-2-carbonyl)-4H,5H,6H,7H-[1,3]thiazolo[5,4-c]pyridin-2-yl]amino}methyl)cyclopropyl]methanol]: the negative-log IC50 (pIC50) in test [1] was above 5.30. Also, the negative-log EC50 (pEC50) in test [2] is above 6.00.

Take `CC(=O)NNc1nc2c(s1)CN(C(=O)c1cc3ccccc3[nH]1)CC2` [Example 58, N′-[5-(1H-indole-2-carbonyl)-4H,5H,6H,7H-[1,3]thiazolo[5,4-c]pyridin-2-yl]acetohydrazide]: the pIC50 in test [1] was 5.00 to 5.30. In addition, the negative-log EC50 (pEC50) in test [2] was 5.00 to 6.00.

For `O=C(c1cc2ccccc2[nH]1)N1CCc2nc(NCCCN3CCOCC3)sc2C1` [Example 73, 5-(1H-indole-2-carbonyl)-N-[3-(morpholin-4-yl)propyl]-4H,5H,6H,7H-[1,3]thiazolo[5,4-c]pyridin-2-amine], the negative logarithm of the IC50 (pIC50) in test [1] was above 5.30. In addition, in test [2], the pEC50 was above 6.00.

As for `Nc1nc2c(s1)CN(C(=O)c1cc3c(Cl)cc(Cl)cc3[nH]1)CC2` [Example 168, 5-(4,6-dichloro-1H-indole-2-carbonyl)-4H,5H,6H,7H-[1,3]thiazolo[5,4-c]pyridin-2-amine], in test [1], the pIC50 was above 5.30. For the same compound, the pEC50 in test [2] is above 6.00.

As for `O=C(c1cc2ccccc2[nH]1)N1CCc2nc(CNC3CCOC3)sc2C1` (stereo not shown) [Example 40, N-{[5-(1H-indole-2-carbonyl)-4H,5H,6H,7H-[1,3]thiazolo[5,4-c]pyridin-2-yl]methyl}oxolan-3-amine], the negative logarithm of the IC50 (pIC50) in test [1] is 5.00 to 5.30. Further, the pEC50 in test [2] was 5.00 to 6.00.

Take `COCC(C)Nc1nc2c(s1)CN(C(=O)c1cc3ccccc3[nH]1)CC2` (stereo not shown) [Example 70, 5-(1H-indole-2-carbonyl)-N-(1-methoxypropan-2-yl)-4H,5H,6H,7H-[1,3]thiazolo[5,4-c]pyridin-2-amine]: the pIC50 in test [1] was above 5.30. In test [2], the pEC50 was above 6.00.

As for `O=C(c1cc2ccccc2[nH]1)N1CCc2nc(NC3CC(CO)(CO)C3)sc2C1` [Example 42, [1-(hydroxymethyl)-3-{[5-(1H-indole-2-carbonyl)-4H,5H,6H,7H-[1,3]thiazolo[5,4-c]pyridin-2-yl]amino}cyclobutyl]methanol], in test [1], the pIC50 was above 5.30. Besides, in test [2], the pEC50 was above 6.00.

For `CC(O)c1cc(F)cc2[nH]c(C(=O)N3CCc4nc(N)sc4C3)cc12` (stereo not shown) [Example 15, 1-(2-{2-amino-4H,5H,6H,7H-[1,3]thiazolo[5,4-c]pyridine-5-carbonyl}-6-fluoro-1H-indol-4-yl)ethan-1-ol], the pIC50 in test [1] was 5.00 to 5.30. Besides, in test [2], the negative-log EC50 (pEC50) is 5.00 to 6.00.

Consider `O=C(c1cc2c(C(F)F)cc(F)cc2[nH]1)N1CCc2nc(NCC3CCOC3)sc2C1` (stereo not shown) [Example 326, 5-[4-(difluoromethyl)-6-fluoro-1H-indole-2-carbonyl]-N-[(oxolan-3-yl)methyl]-4H,5H,6H,7H-[1,3]thiazolo[5,4-c]pyridin-2-amine], for which, in test [1], the pIC50 is above 5.30. Besides, the pEC50 in test [2] was above 6.00.

With `CCc1ccc(F)c2[nH]c(C(=O)N3CCc4nc(N)sc4C3)cc12` [Example 8, 5-(4-ethyl-7-fluoro-1H-indole-2-carbonyl)-4H,5H,6H,7H-[1,3]thiazolo[5,4-c]pyridin-2-amine], in test [1], the pIC50 was above 5.30. Also, in test [2], the pEC50 is above 6.00.

For `O=C1CC(C(=O)Nc2nc3c(s2)CN(C(=O)c2cc4ccccc4[nH]2)CC3)CCN1` (stereo not shown) [Example 412, N-[5-(1H-indole-2-carbonyl)-4H,5H,6H,7H-[1,3]thiazolo[5,4-c]pyridin-2-yl]-2-oxopiperidine-4-carboxamide], in test [1], the negative-log IC50 (pIC50) was above 5.30. Besides, the pEC50 in test [2] is above 6.00.

As for `CC(O)c1cc(F)cc2[nH]c(C(=O)N3CCc4nc(NCC5CCOC5)sc4C3)cc12` (stereo not shown) [Example 258, 1-[6-fluoro-2-(2-{[(oxolan-3-yl)methyl]amino}-4H,5H,6H,7H-[1,3]thiazolo[5,4-c]pyridine-5-carbonyl)-1H-indol-4-yl]ethan-1-ol], the negative logarithm of the IC50 (pIC50) in test [1] was above 4.00. The pEC50 in test [2] was 5.00 to 6.00.

Regarding `Cc1nc2c(s1)CN(C(=O)c1cc3cccc(Cl)c3[nH]1)CC2` [Example 189, 7-chloro-2-{2-methyl-4H,5H,6H,7H-[1,3]thiazolo[5,4-c]pyridine-5-carbonyl}-1H-indole], in test [1], the pIC50 is 5.00 to 5.30. In addition, the negative logarithm of the EC50 (pEC50) in test [2] is 5.00 to 6.00.

As to `CCc1cc(F)cc2[nH]c(C(=O)N3CCc4nc(N)sc4C3)cc12` [Example 7, 5-(4-ethyl-6-fluoro-1H-indole-2-carbonyl)-4H,5H,6H,7H-[1,3]thiazolo[5,4-c]pyridin-2-amine], in test [1], the pIC50 was above 5.30. Also, the pEC50 in test [2] is above 6.00.
